Experimental data reported in US20250228239A1, “MOLECULES HAVING PESTICIDAL UTILITY, AND INTERMEDIATES, COMPOSITIONS, AND PROCESSES, RELATED THERETO” (priority 2024, published 2025).
Like-named read-outs stand apart in the source and are kept apart here.

Legend:
Assay type in all cases: in vivo
[1] = test system: Beet Armyworm (Spodoptera exigua, LAPHEG); assay: Bioassays on Beet Armyworm (BAW), 128-well diet tray assay; conditions: Spodoptera exigua
Outline: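 Diet-overlay assay: 50 μg/cm^2 compound applied in 90:10 acetone-water to artificial diet, allowed to dry, then infested with 1–5 L2 larvae/well; 8 wells/compound; covered, vented; 25° C., 14:10 L:D, 5–7 d; % mortality per well, averaged.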

[2] = test system: Cabbage Looper (Trichoplusia ni, TRIPNI); assay: Bioassays on Cabbage Looper (CL), 128-well diet tray assay; conditions: Trichoplusia ni
Outline: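 Second-instar larvae (1–5 per well) placed on artificial diet surface-treated with 50 μg/cm^2 test molecule applied in 90:10 acetone-water and dried. Held at 25° C., 14:10 light-dark, for five to seven days. Percent mortality scored per well and averaged over eight wells.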

[3] = test system: Green Peach Aphid (Myzus persicae, MYZUPE); assay: Bioassays on Green Peach Aphid (GPA), foliar spray on cabbage seedlings; conditions: 72 h
Outline: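 Percent control (Abbott-corrected versus solvent-sprayed plants) comes from live-aphid counts three days after treatment at about 25° C. Test solution at 200 ppm was sprayed to runoff onto both leaf surfaces of cabbage seedlings infested a day earlier with 20-50 aphids; four replicate pots.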

[4] = test system: Yellow Fever Mosquito (Aedes aegypti, AEDSAE)
Outline: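 Mortality after 3 days at room temperature is the read-out, scored well by well and converted to a rating. Test molecules came from 4000 ppm stocks in DMSO, further diluted in 90:10 water/acetone, and were exposed to roughly 1-day-old larvae suspended in liver-powder water.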

[5] = Table ABC: Biological Results, species BAW, read-out: BAW
[6] = Table ABC: Biological Results, species CL, read-out: CL
[7] = Table ABC: Biological Results, species GPA, read-out: GPA
[8] = Table ABC: Biological Results, species YFM
[9] = Beet Armyworm, rating class, read-out: BAW
[10] = Cabbage Looper, rating class, read-out: CL
[11] = Green Peach Aphid, rating class, read-out: GPA
[12] = Yellow Fever Mosquito, rating class

| SMILES | pest or weed control at 50 µg/cm2 [1, 9] [%] | pest or weed control at 50 µg/cm2 [2, 10] [%] | pest or weed control at 200 µg/mL [3, 11] [%] | YFM [4, 12] | further results |
| --- | --- | --- | --- | --- | --- |
| O=C(Nc1c(F)ccc(NC(=O)C(F)F)c1F)c1cc(NC(=O)[C@H]2[C@H](c3ccc(Cl)c(Cl)c3)C2(Cl)Cl)ccc1Cl [F1240, 2-Chloro-5-((1R,3R)-2,2-dichloro-3-(3,4-dichlorophenyl)cyclopropane-1-carboxamido)-N-(3-(2,2-difluoroacetamido)-2,6-difluorophenyl)benzamide] | – | – | – | – | pest or weed control at 50 µg/cm2 [1, 5]: 50 to 100%; pest or weed control at 50 µg/cm2 [2, 6]: 50 to 100%; pest or weed control at 200 µg/mL [3, 7]: 0 to 80%; YFM [4, 8]: A (80–100) |
| Nc1ccc(F)c(NC(=O)c2cc(NC(=O)[C@H]3[C@H](c4cc(Cl)cc(Cl)c4)C3(Cl)Cl)ccc2Cl)c1F [F1227, N-(3-Amino-2,6-difluorophenyl)-2-chloro-5-((1R,3R)-2,2-dichloro-3-(3,5-dichlorophenyl)cyclopropane-1-carboxamido)benzamide] | – | – | – | – | pest or weed control at 50 µg/cm2 [1, 5]: 50 to 100%; pest or weed control at 50 µg/cm2 [2, 6]: 50 to 100%; pest or weed control at 200 µg/mL [3, 7]: 0 to 80%; YFM [4, 8]: A (80–100) |
| O=C(Nc1cc(NC(=O)C(F)(F)Cl)c(F)cc1F)c1cc(NC(=O)[C@H]2[C@H](c3ccc(Cl)c(Cl)c3)C2(Cl)Cl)ccc1Cl [F1243, 2-Chloro-N-(5-(2-chloro-2,2-difluoroacetamido)-2,4-difluorophenyl)-5-((1R,3R)-2,2-dichloro-3-(3,4-dichlorophenyl)cyclopropane-1-carboxamido)benzamide] | – | – | – | – | pest or weed control at 50 µg/cm2 [1, 5]: 50 to 100%; pest or weed control at 50 µg/cm2 [2, 6]: 50 to 100%; pest or weed control at 200 µg/mL [3, 7]: 0 to 80%; YFM [4, 8]: A (80–100) |
| O=C1CCC(C(=O)Nc2c(F)ccc(NC(=O)c3cc(NC(=O)[C@H]4[C@H](c5ccc(F)c(C(F)(F)F)c5)C4(Cl)Cl)ccc3Cl)c2F)O1 (stereo partly drawn) [F1625, N-(3-(2-Chloro-5-((1R,3R)-2,2-dichloro-3-(4-fluoro-3-(trifluoromethyl)phenyl)cyclopropane-1-carboxamido)benzamido)-2,6-difluorophenyl)-5-oxotetrahydrofuran-2-carboxamide] | 50 to 100 | 50 to 100 | 0 to 80 | A (80–100) | – |
| CC(=O)Nc1c(F)cc(F)c(NC(=O)c2cc(NC(=O)[C@H]3[C@H](c4ccc(F)c(Cl)c4)C3(Cl)Cl)ccc2Cl)c1F [F1627, N-(3-Acetamido-2,4,6-trifluorophenyl)-2-chloro-5-((1R,3R)-2,2-dichloro-3-(3-chloro-4-fluorophenyl)cyclopropane-1-carboxamido)benzamide] | 50 to 100 | 50 to 100 | 80 to 100 | A (80–100) | – |
| O=C(Nc1ccc(F)c(NC(=O)C(F)(F)C(F)F)c1F)c1cc(NC(=O)[C@H]2[C@H](c3ccc(F)c(Cl)c3)C2(Cl)Cl)ccc1Cl [F1703, 2-Chloro-5-((1R,3R)-2,2-dichloro-3-(3-chloro-4-fluorophenyl)cyclopropane-1-carboxamido)-N-(2,4-difluoro-3-(2,2,3,3-tetrafluoropropanamido)phenyl)benzamide] | 50 to 100 | 50 to 100 | 80 to 100 | A (80–100) | – |
| CC(Br)C(=O)Nc1c(F)ccc(NC(=O)c2cc(NC(=O)[C@H]3[C@H](c4ccc(F)c(C(F)(F)F)c4)C3(Cl)Cl)ccc2Cl)c1F (stereo partly drawn) [F1479, N-(3-(2-Bromopropanamido)-2,4-difluorophenyl)-2-chloro-5-((1R,3R)-2,2-dichloro-3-(4-fluoro-3-(trifluoromethyl)phenyl)cyclopropane-1-carboxamido)benzamide] | 50 to 100 | 50 to 100 | 0 to 80 | A (80–100) | – |
| O=C(Nc1ccc(F)c(NC(=O)C(F)(F)F)c1F)c1cc(NC(=O)[C@H]2[C@H](c3ccc(F)c(C(F)(F)F)c3)C2(Cl)Cl)ccc1F [F1529, 5-((1R,3R)-2,2-Dichloro-3-(4-fluoro-3-(trifluoromethyl)phenyl)cyclopropane-1-carboxamido)-N-(2,4-difluoro-3-(2,2,2-trifluoroacetamido)phenyl)-2-fluorobenzamide] | 50 to 100 | 50 to 100 | 0 to 80 | A (80–100) | – |
| CN(C(=O)C(F)F)c1c(F)ccc(NC(=O)c2cc(NC(=O)[C@H]3[C@H](c4ccc(F)c(C(F)(F)F)c4)C3(Cl)Cl)ccc2Cl)c1F [F1386, 2-Chloro-5-((1R,3R)-2,2-dichloro-3-(4-fluoro-3-(trifluoromethyl)phenyl)cyclopropane-1-carboxamido)-N-(3-(2,2-difluoro-N-methylacetamido)-2,4-difluorophenyl)benzamide] | – | – | – | – | pest or weed control at 50 µg/cm2 [1, 5]: 50 to 100%; pest or weed control at 50 µg/cm2 [2, 6]: 50 to 100%; pest or weed control at 200 µg/mL [3, 7]: 0 to 80%; YFM [4, 8]: A (80–100) |
| CCCOC(C)C(=O)Nc1c(F)ccc(NC(=O)c2cc(NC(=O)[C@H]3[C@H](c4ccc(F)c(C(F)(F)F)c4)C3(Cl)Cl)ccc2Cl)c1F (stereo partly drawn) [F1739, 2-Chloro-5-((1R,3R)-2,2-dichloro-3-(4-fluoro-3-(trifluoromethyl)phenyl)cyclopropane-1-carboxamido)-N-(2,4-difluoro-3-(2-propoxypropanamido)phenyl)benzamide] | 50 to 100 | 50 to 100 | 0 to 80 | A (80–100) | – |
| O=C(Nc1ccc(F)c(NC(=O)C2CCCO2)c1F)c1cc(NC(=O)[C@H]2[C@H](c3ccc(F)c(Cl)c3)C2(Cl)Cl)ccc1Cl (stereo partly drawn) [F1699, N-(3-(2-Chloro-5-((1R,3R)-2,2-dichloro-3-(3-chloro-4-fluorophenyl)cyclopropane-1-carboxamido)benzamido)-2,6-difluorophenyl)tetrahydrofuran-2-carboxamide] | 50 to 100 | 50 to 100 | 0 to 80 | B (More than 0 – Less than 80) | – |
| CCCNC(=O)c1c(F)ccc(NC(=O)[C@H]2[C@H](c3ccc(F)c(Cl)c3)C2(Cl)Cl)c1F (relative stereo) [F2021, trans-3-(2,2-Dichloro-3-(3-chloro-4-fluorophenyl)cyclopropane-1-carboxamido)-2,6-difluoro-N-propylbenzamide] | – | – | – | – | pest or weed control at 50 µg/cm2 ([1]; Beet Armyworm, Table ABC / ABC-DP rating, read-out: BAW rating): 50 to 100%; pest or weed control at 50 µg/cm2 ([2]; Cabbage Looper, Table ABC / ABC-DP rating, read-out: CL rating): 50 to 100%; pest or weed control at 200 µg/mL ([3]; Green Peach Aphid, Table ABC / ABC-DP rating, read-out: GPA rating): 80 to 100%; YFM rating ([4]; Yellow Fever Mosquito, Table ABC / ABC-DP rating): A (80–100) |
| O=C(Cc1ccccc1)Nc1c(F)ccc(NC(=O)c2cc(NC(=O)[C@H]3[C@H](c4ccc(Cl)c(Cl)c4)C3(Cl)Cl)ccc2Cl)c1F [F1673, 2-Chloro-5-((1R,3R)-2,2-dichloro-3-(3,4-dichlorophenyl)cyclopropane-1-carboxamido)-N-(2,4-difluoro-3-(2-phenylacetamido)phenyl)benzamide] | 50 to 100 | 50 to 100 | 0 to 80 | B (More than 0 – Less than 80) | – |
| CCCCC(=O)Nc1c(F)ccc(NC(=O)c2cc(NC(=O)[C@H]3[C@H](c4ccc(Cl)c(Cl)c4)C3(Cl)Cl)ccc2Cl)c1F [F1474, 2-Chloro-5-((1R,3R)-2,2-dichloro-3-(3,4-dichlorophenyl)cyclopropane-1-carboxamido)-N-(2,4-difluoro-3-pentanamidophenyl)benzamide] | 50 to 100 | 50 to 100 | 0 to 80 | A (80–100) | – |
| O=C(Nc1c(F)ccc(NC(=O)C(F)F)c1F)c1cc(NC(=O)[C@H]2[C@H](c3ccc(F)c(Cl)c3)C2(Cl)Cl)ccc1Cl [F1234, 2-Chloro-5-((1R,3R)-2,2-dichloro-3-(3-chloro-4-fluorophenyl)cyclopropane-1-carboxamido)-N-(3-(2,2-difluoroacetamido)-2,6-difluorophenyl)benzamide] | – | – | – | – | pest or weed control at 50 µg/cm2 [1, 5]: 50 to 100%; pest or weed control at 50 µg/cm2 [2, 6]: 50 to 100%; pest or weed control at 200 µg/mL [3, 7]: 80 to 100%; YFM [4, 8]: A (80–100) |
| O=C(Nc1ccc(F)c(NC(=O)C(F)F)c1F)c1cc(NC(=O)[C@H]2[C@H](c3ccc(Cl)c(C(F)(F)F)c3)C2(Cl)Cl)ccc1Cl [F1657, 2-Chloro-5-((1R,3R)-2,2-dichloro-3-(4-chloro-3-(trifluoromethyl)phenyl)cyclopropane-1-carboxamido)-N-(3-(2,2-difluoroacetamido)-2,4-difluorophenyl)benzamide] | 50 to 100 | 50 to 100 | 80 to 100 | A (80–100) | – |
| CC(C)C(=O)Nc1c(F)ccc(NC(=O)c2cc(NC(=O)[C@H]3[C@H](c4ccc(F)c(C(F)(F)F)c4)C3(Cl)Cl)ccc2Cl)c1F [F1483, 2-Chloro-5-((1R,3R)-2,2-dichloro-3-(4-fluoro-3-(trifluoromethyl)phenyl)cyclopropane-1-carboxamido)-N-(2,4-difluoro-3-isobutyramidophenyl)benzamide] | 50 to 100 | 50 to 100 | 0 to 80 | A (80–100) | – |
